Read-outs that look alike come from different tables or passages of the source.
Molecular target: T1, hM5 (Homo sapiens, UniProt P08912)
T1 construct: expressed in transfected cells
T1 sequence (P08912 1-532): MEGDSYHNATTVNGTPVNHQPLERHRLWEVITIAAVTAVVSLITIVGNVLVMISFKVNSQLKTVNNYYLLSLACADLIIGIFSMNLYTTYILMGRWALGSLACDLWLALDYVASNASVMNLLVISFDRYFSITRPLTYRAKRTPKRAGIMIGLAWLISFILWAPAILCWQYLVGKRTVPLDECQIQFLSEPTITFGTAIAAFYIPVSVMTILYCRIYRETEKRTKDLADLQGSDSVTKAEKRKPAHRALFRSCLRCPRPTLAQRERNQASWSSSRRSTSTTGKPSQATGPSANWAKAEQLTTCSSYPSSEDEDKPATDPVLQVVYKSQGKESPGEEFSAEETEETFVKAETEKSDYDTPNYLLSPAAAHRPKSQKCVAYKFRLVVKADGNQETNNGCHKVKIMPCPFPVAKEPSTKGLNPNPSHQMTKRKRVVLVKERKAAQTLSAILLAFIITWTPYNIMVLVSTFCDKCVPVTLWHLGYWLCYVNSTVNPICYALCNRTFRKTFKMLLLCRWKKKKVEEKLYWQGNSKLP
Experiment: Calcium mobilization concentration-response (IC50 vs EC80 acetylcholine), CHO hM5
Assay type: cell-based
Conditions: CELL LINE hM5, read-out: IC50
Outline: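 IC50 values derive from percent maximal acetylcholine response after an EC80 ACh addition, measured as kinetic calcium fluorescence (static ratio, max−min). Test compounds were added 140 s before agonist. Cells: stable hM5-CHO in HEPES-buffered HBSS with 2.5 mM probenecid, pH 7.4; ≥3 independent triplicate determinations.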

[1] = calcium mobilization, EC80 acetylcholine addition

IC50 [1] [nM] | IC50 (vs EC80 acetylcholine) [nM] | SMILES
> 10000 | – | Cc1cc2ncnn2cc1C1CCN(S(=O)(=O)c2cc3c(cc2F)OCC3)C1 (centres unmarked) [Compound 127, 6-(1-((6-fluoro-2,3-dihydrobenzofuran-5-yl)sulfonyl)pyrrolidin-3-yl)-7-methyl-[1,2,4]triazolo[1,5-a]pyridine]
227 | – | CCc1cc2ncnn2cc1C1CCN(S(=O)(=O)c2cnc(C)n2C)CC1 [Compound 300, 6-(1-((1,2-dimethyl-1H-imidazol-5-yl)sulfonyl)piperidin-4-yl)-7-ethyl-[1,2,4]triazolo[1,5-a]pyridine]
699 | – | [2H]C1([2H])Oc2ccc(S(=O)(=O)N3CC=C(c4cn5ncnc5cc4C)CC3)cc2C1([2H])[2H] [Compound 72, 6-(1-((2,3-dihydrobenzofuran-5-yl-2,2,3,3-d4)sulfonyl)-1,2,3,6-tetrahydropyridin-4-yl)-7-methyl-[1,2,4]triazolo[1,5-a]pyridine]
2560 | – | O=S(=O)(c1ccc2ncccc2c1)N1CCC(c2cc3cc[nH]c3nn2)CC1 [Compound 23, 6-((4-(7H-pyrrolo[2,3-c]pyridazin-3-yl)piperidin-1-yl)sulfonyl)quinoline]
2100 | – | O=S(=O)(c1ccc2c(c1)CCO2)N1CCC(c2cn3ncnc3cc2F)CC1 [Compound 105, 6-(1-((2,3-dihydrobenzofuran-5-yl)sulfonyl)piperidin-4-yl)-7-fluoro-[1,2,4]triazolo[1,5-a]pyridine]
> 10000 | – | Cc1c(C2=CCN(S(=O)(=O)c3ccc4c(c3)CCO4)CC2)cnc2ncnn12 [Compound 244, 6-(1-((2,3-dihydrobenzofuran-5-yl)sulfonyl)-1,2,3,6-tetrahydropyridin-4-yl)-7-methyl-[1,2,4]triazolo[1,5-a]pyrimidine]
> 10000 | – | Cc1sc(C#N)nc1C1=CCN(S(=O)(=O)c2cnn(C)c2C)CC1 [Compound 204, 4-(1-((1,5-dimethyl-1H-pyrazol-4-yl)sulfonyl)-1,2,3,6-tetrahydropyridin-4-yl)-5-methylthiazole-2-carbonitrile]
327 | – | O=S(=O)(c1c(Cl)nc2sccn12)N1CCC(c2cn3ncnc3cc2F)CC1 [Compound 328, 6-chloro-5-((4-(7-fluoro-[1,2,4]triazolo[1,5-a]pyridin-6-yl)piperidin-1-yl)sulfonyl)imidazo[2,1-b]thiazole]
> 10000 | – | Cc1cc2ncnn2cc1C1CCN(S(=O)(=O)c2ccc3c(cnn3C)c2)CC1 [Compound 175, 7-methyl-6-(1-((1-methyl-1H-indazol-5-yl)sulfonyl)piperidin-4-yl)-[1,2,4]triazoto[1,5-a]pyridine]
2200 | – | O=S(=O)(c1ccc2c(c1)CCO2)N1CCC(c2cc3cc[nH]c3nn2)CC1 [Compound 21, 3-(1-((2,3-dihydrobenzofuran-5-yl)sulfonyl)piperidin-4-yl)-7H-pyrrolo[2,3-c]pyridazine]
2000 | – | O=S(=O)(c1ccc2c(c1)CCO2)N1CCC(c2cc3[nH]ccc3cn2)CC1 [Compound 29, 6-(1-((2,3-dihydrobenzofuran-5-yl)sulfonyl)piperidin-4-yl)-1H-pyrrolo[3,2-c]pyridine]
636 | – | [2H]C1([2H])Oc2cc(C)c(C3CCN(S(=O)(=O)c4cnc(C)n4C)CC3)cc2OC1([2H])[2H] [Compound 391, 1-((1,2-dimethyl-1H-imidazol-5-yl)sulfonyl)-4-(7-methyl-2,3-dihydrobenzo[b][1,4]dioxin-6-yl-2,2,3,3-d4)piperidine]
> 10000 | – | Cc1sc(C(N)=O)nc1C1=CCN(S(=O)(=O)c2cnn(C)c2C)CC1 [Compound 202, 4-(1-((1,5-dimethyl-1H-pyrazol-4-yl)sulfonyl)-1,2,3,6-tetrahydropyridin-4-yl)-5-methylthiazole-2-carboxamide]
> 10000 | – | COc1cc(C2CCN(S(=O)(=O)c3cc4c(cc3F)OCC4)CC2)cn2ncnc12 [Compound 115, 6-(1-((6-fluoro-2,3-dihydrobenzofuran-5-yl)sulfonyl)piperidin-4-yl)-8-methoxy-[1,2,4]triazolo[1,5-a]pyridine]
62 | – | Cc1cc2ncnn2cc1C1CCN(S(=O)(=O)c2cnn3c2NCCC3)CC1 [Compound 261, 7-methyl-6-(1-((4,5,6,7-tetrahydropyrazolo[1,5-a]pyrimidin-3-yl)sulfonyl)piperidin-4-yl)-[1,2,4]triazolo[1,5-a]pyridine]
> 10000 | – | Cc1nc2cc(C)c(C3CCN(S(=O)(=O)c4ccc5c(c4)CCO5)CC3)cn2n1 [Compound 76, 6-(1-((2,3-dihydrobenzofuran-5-yl)sulfonyl)piperidin-4-yl)-2,7-dimethyl-[1,2,4]triazolo[1,5-a]pyridine]

IC50 [1] [nM] | IC50 (vs EC80 acetylcholine) [nM] | SMILES
> 10000 | – | O=S(=O)(c1ccc2c(c1)CCO2)N1CCC(c2cc3cc[nH]c3cn2)CC1 [Compound 24, 5-(1-((2,3-dihydrobenzofuran-5-yl)sulfonyl)piperidin-4-yl)-1H-pyrrolo[2,3-c]pyridine]
– | 151 | Cc1nnc(S(=O)(=O)N2CCC(c3cn4ncnc4cc3Cl)CC2)o1 [Compound 607]
> 10000 | – | Cc1cc2ncnn2cc1C1=CCN(S(=O)(=O)c2ccc3c(c2)CC(C)O3)CC1 (centres unmarked) [Compound 49, 7-methyl-6-(1-((2-methyl-2,3-dihydrobenzofuran-5-yl)sulfonyl)-1,2,3,6-tetrahydropyridin-4-yl)-[1,2,4]triazolo[1,5-a]pyridine]
83 | – | CCc1cc2ncnn2cc1C1CCN(S(=O)(=O)c2cnc3n2CCCC3)CC1 [Compound 335, 7-ethyl-6-(1-((5,6,7,8-tetrahydroimidazo[1,2-a]pyridin-3-yl)sulfonyl)piperidin-4-yl)-[1,2,4]triazolo[1,5-a]pyridine]
134 | – | Cc1c(S(=O)(=O)N2CCC(c3cn4ncnc4cc3C3CC3)CC2)cnn1C [Compound 345, 7-cyclopropyl-6-(1-((1,5-dimethyl-1H-pyrazol-4-yl)sulfonyl)piperidin-4-yl)-[1,2,4]triazolo[1,5-a]pyridine]
– | > 10000 | Cn1ncc(S(=O)(=O)N2CCC(c3c(C(F)(F)F)nc4n3CCCC4)CC2)c1Cl [Compound 555, 3-(1-((5-chloro-1-methyl-1H-pyrazol-4-yl)sulfonyl)piperidin-4-yl)-2-(trifluoromethyl)-5,6,7,8-tetrahydroimidazo[1,2-a]pyridine]
– | 18 | [2H]C([2H])([2H])Oc1c(S(=O)(=O)N2CCC(c3cn4ncnc4cc3C)CC2)cnn1C [Compound 612, 6-(1-((5-(methoxy-d3)-1-methyl-1H-pyrazol-4-yl)sulfonyl)piperidin-4-yl)-7-methyl-[1,2,4]triazolo[1,5-a]pyridine]
4200 | – | Cc1cc2nccn2nc1C1CCN(S(=O)(=O)c2ccc3ncsc3c2)CC1 [Compound 38, 6-((4-(7-methylimidazo[1,2-b]pyridazin-6-yl)piperidin-1-yl)sulfonyl)benzo[d]thiazole]
– | > 10000 | Cc1cc2ncnn2cc1C1(F)CCN(S(=O)(=O)c2cnn(C)c2CC#N)CC1 [Compound 457, 2-(4-((4-fluoro-4-(7-methyl-[1,2,4]triazolo[1,5-a]pyridin-6-yl)piperidin-1-yl)sulfonyl)-1-methyl-1H-pyrazol-5-yl)acetonitrile]
– | 28 | Cc1cc2ncccc2cc1C1CCN(S(=O)(=O)c2cnn3c2OCCC3)CC1 [Compound 446, 3-((4-(7-methylquinolin-6-yl)piperidin-1-yl)sulfonyl)-6,7-dihydro-5H-pyrazolo[5,1-b][1,3]oxazine]
– | 6310 | Cc1cc(C(F)(F)F)ncc1C1CCN(S(=O)(=O)c2cnn3c2OCCC3)CC1 [Compound 398, 3-((4-(4-methyl-6-(trifluoromethyl)pyridin-3-yl)piperidin-1-yl)sulfonyl)-6,7-dihydro-5H-pyrazolo[5,1-b][1,3]oxazine]
774 | – | O=S(=O)(c1cnc2ccccn12)N1CCC(c2cn3ncnc3cc2F)CC1 [Compound 327, 7-fluoro-6-(1-(imidazo[1,2-a]pyridin-3-ylsulfonyl)piperidin-4-yl)-[1,2,4]triazolo[1,5-a]pyridine]
14 | – | Cc1c(C2CCN(S(=O)(=O)c3cnn4c3CCC4)CC2)cn2ncnc2c1F [Compound 268, 6-(1-((5,6-dihydro-4H-pyrrolo[1,2-b]pyrazol-3-yl)sulfonyl)piperidin-4-yl)-8-fluoro-7-methyl-[1,2,4]triazolo[1,5-a]pyridine]
17 | – | Cc1c(C2CCN(S(=O)(=O)c3cnc4n3CCCC4)CC2)cn2ncnc2c1F [Compound 349, 8-fluoro-7-methyl-6-(1-((5,6,7,8-tetrahydroimidazo[1,2-a]pyridin-3-yl)sulfonyl)piperidin-4-yl)-[1,2,4]triazolo[1,5-a]pyridine]
594 | – | Cc1cc2ncnn2cc1[C@@H]1CCN(S(=O)(=O)c2cnn(C)c2C)C[C@H]1O (racemic) [Compound 197, (rac)-trans-1-((1,5-dimethyl-1H-pyrazol-4-yl)sulfonyl)-4-(7-methyl-[1,2,4]triazolo[1,5-a]pyridin-6-yl)piperidin-3-ol]
> 10000 | – | Cc1cc2ncnn2nc1C1CCN(S(=O)(=O)c2c(C)n[nH]c2C)CC1 [Compound 180, 6-(1-((3,5-dimethyl-1H-pyrazol-4-yl)sulfonyl)piperidin-4-yl)-7-methyl-[1,2,4]triazolo[1,5-b]pyridazine]
